In ChEMBL document CHEMBL1138806, “A cyclopent-2-enecarbonyl group mimics proline at the P2 position of prolyl oligopeptidase inhibitors” (J Med Chem, 2004):

Experiments:
[1] = Partition coefficient (logP) determined in a 1-octanol-phosphate buffer system; type: physicochemical
[2] = molecular target: T1, Prolyl endopeptidase (Sus scrofa, UniProt P23687); assay: Inhibitory activity against prolyl oligopeptidase of porcine brain homogenate
[3] = molecular target: T1, Prolyl endopeptidase; assay: Inhibitory activity against purified porcine prolyl oligopeptidase

T1 sequence (P23687 whole entry): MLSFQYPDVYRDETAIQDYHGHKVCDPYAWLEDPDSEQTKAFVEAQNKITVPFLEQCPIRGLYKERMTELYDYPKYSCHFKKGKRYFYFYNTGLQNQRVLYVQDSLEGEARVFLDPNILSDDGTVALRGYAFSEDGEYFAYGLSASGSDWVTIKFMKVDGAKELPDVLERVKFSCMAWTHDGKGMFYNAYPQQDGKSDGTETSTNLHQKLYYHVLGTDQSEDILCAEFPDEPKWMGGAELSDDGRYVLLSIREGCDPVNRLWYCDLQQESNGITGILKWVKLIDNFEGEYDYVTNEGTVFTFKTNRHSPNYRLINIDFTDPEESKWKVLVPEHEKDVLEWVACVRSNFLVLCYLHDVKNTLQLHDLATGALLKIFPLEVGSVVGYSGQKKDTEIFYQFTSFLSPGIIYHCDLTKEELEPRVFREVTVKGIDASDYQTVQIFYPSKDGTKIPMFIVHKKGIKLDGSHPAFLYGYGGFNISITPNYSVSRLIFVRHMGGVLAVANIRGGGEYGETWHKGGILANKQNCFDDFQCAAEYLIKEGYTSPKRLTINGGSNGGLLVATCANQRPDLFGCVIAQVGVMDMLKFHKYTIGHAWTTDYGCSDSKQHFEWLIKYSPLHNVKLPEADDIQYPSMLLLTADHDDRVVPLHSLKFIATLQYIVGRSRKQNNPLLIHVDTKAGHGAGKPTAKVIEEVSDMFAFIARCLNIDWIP

Row | logP [1] | IC50 [2] [nM] | Ki [3] [nM] | SMILES
1 | 2.4 | 0.2 | 0.03 | N#C[C@@H]1CCCN1C(=O)[C@@H]1CCC=C1C(=O)CCCc1ccccc1
2 | – | 230 | – | O=C(NCc1ccccc1)C1=C(C(=O)N2CCCC2)CCC1
3 | 1.6 | – | – | N#C[C@@H]1CCCN1C(=O)[C@@H]1CCCN1C(=O)CCCc1ccccc1
4 | 1.8 | – | – | O=C([C@@H]1CCCN1C(=O)CCCc1ccccc1)N1CCCC1
5 | – | 52 | – | O=C(NCc1ccccc1)C1=CCC[C@@H]1C(=O)N1CCC[C@H]1C(=O)CO
6 | – | 5 | – | N#C[C@@H]1CCCN1C(=O)[C@H]1CCC=C1C(=O)CCCc1ccccc1
7 | 0.6 | 0.3 | 0.15 | O=C(NCc1ccccc1)C1=CCC[C@H]1C(=O)N1CCC[C@H]1C(=O)CO
8 | 0.2 | 0.2 | 0.06 | O=C(CO)[C@@H]1CCCN1C(=O)[C@@H]1CCCN1C(=O)NCc1ccccc1
